In PMC12136037, “Type II kinase inhibitors that target Parkinson’s disease–associated LRRK2” (Science Advances, 2025):
Values joined by “and” are separate entries in the source; they are usually repeats but may differ in a detail not shown here. Equal values may be shown once. Read-outs that look alike come from different tables or passages of the source.

Columns and labels:
Assay in all cases: nanoBRET off-target validation
Assay type in all cases: cell-based
[1] = biological target: T1, JNK2 (Homo sapiens, UniProt P45984)
T1 construct: host or cells: HEK293T (ATCC CRL-3216)
Experimental: (§1) The assay was performed as described previously ([61]). In brief, full-length kinases as listed in table S6 were obtained as plasmids cloned in frame with terminal NanoLuc-fusion (gift from Promega; table S6). […] Serially diluted inhibitor and corresponding tracer as listed in table S6 at the Tracer KD concentration taken from TracerDB (tracerdb.org) ([62]) were pipetted into white 384-well plates (Greiner, 781207) using an ECHO acoustic dispenser (Labcyte). The corresponding protein-transfected cells were added and reseeded at a density of 2 × 10^5 cells/ml after trypsinization and resuspending in Opti-MEM without phenol red (Life Technologies). The system was allowed to equilibrate for 3 hours at 37°C/5% CO2 before bioluminescence resonance energy transfer (BRET) measurements. To measure BRET, NanoBRET NanoGlo Substrate + extracellular NanoLuc Inhibitor (Promega, N2540) was added as per the manufacturer’s protocol, and filtered luminescence was measured on a PHERAstar plate reader (BMG Labtech) equipped with a luminescence filter pair [450-nm BP filter (donor) and 610-nm LP filter (acceptor)]. […] (For step-by-step protocol, see www.eubopen.org/sites/www.eubopen.org/files/attachments/2021/NanoBRET-IC50_v1_0.pdf.)

[2] = biological target: T2, STK17B (Homo sapiens, UniProt O94768)
T2 construct: host or cells: HEK293T (ATCC CRL-3216)
T2 sequence (O94768 1-372): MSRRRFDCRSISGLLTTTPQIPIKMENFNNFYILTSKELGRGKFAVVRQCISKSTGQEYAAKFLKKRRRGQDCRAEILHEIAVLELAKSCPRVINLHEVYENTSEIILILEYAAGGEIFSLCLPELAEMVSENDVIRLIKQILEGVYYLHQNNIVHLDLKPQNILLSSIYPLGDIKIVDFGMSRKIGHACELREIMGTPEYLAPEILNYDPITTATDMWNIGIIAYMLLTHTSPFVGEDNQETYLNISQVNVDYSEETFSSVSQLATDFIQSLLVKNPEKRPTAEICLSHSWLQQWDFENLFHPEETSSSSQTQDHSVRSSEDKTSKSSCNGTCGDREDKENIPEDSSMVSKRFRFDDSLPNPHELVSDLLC
Experimental: as §1

[3] = biological target: T3, DYRK2 (Homo sapiens, UniProt Q92630)
T3 construct: host or cells: HEK293T (ATCC CRL-3216)
T3 sequence (Q92630 1-601): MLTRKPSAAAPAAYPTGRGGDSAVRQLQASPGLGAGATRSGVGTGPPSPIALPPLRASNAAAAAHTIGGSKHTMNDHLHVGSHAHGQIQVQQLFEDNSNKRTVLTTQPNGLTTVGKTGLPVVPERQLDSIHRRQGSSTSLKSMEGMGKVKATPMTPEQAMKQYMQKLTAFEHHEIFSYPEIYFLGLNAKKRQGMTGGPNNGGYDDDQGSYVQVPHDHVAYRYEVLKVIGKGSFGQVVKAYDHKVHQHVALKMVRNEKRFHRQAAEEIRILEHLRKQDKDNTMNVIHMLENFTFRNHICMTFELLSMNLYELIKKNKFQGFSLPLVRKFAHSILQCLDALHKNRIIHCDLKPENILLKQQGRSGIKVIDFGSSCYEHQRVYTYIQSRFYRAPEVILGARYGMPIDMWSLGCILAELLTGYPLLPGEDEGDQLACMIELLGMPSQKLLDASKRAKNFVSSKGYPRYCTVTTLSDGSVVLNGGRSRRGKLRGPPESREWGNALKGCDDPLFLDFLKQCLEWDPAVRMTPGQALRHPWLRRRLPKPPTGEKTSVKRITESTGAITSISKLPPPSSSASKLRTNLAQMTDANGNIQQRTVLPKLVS
Experimental: as §1

T1 sequence (P45984 whole entry): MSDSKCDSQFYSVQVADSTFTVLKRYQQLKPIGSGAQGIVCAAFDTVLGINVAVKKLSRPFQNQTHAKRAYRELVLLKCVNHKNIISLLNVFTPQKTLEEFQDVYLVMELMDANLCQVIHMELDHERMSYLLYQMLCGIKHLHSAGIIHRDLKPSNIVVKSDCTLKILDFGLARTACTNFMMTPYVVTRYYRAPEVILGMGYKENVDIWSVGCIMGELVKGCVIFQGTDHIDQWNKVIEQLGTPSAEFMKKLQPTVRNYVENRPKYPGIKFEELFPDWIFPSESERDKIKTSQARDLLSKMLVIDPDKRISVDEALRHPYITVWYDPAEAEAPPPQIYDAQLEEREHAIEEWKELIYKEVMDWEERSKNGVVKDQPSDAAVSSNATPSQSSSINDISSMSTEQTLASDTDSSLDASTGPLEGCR

CCSc1nc(NC)c2c(-c3cccc(NC(=O)Nc4cc(C(C)(C)C)nn4-c4ccc(C)cc4)c3)c[nH]c2n1 [Compound 32]
nanoBRET response normalized to 0% (no tracer) and 100% (no inhibitor) control ([1]; JNK2, inhibitor 8 nM, two replicates, listed as RN341, 0.008 µM): 97.2218% | remaining activity at 0.008 µM ([1]; JNK2, inhibitor 8 nM, two replicates, read-out: nanoBRET response normalized to 0% (no tracer) and 100% (no inhibitor) control): 103% | nanoBRET response normalized to 0% (no tracer) and 100% (no inhibitor) control ([1]; JNK2, inhibitor 16 nM, two replicates, listed as RN341, 0.016 µM): 96.1223% | remaining activity at 0.016 µM ([1]; JNK2, inhibitor 16 nM, two replicates, read-out: nanoBRET response normalized to 0% (no tracer) and 100% (no inhibitor) control): 95.8% | nanoBRET response normalized to 0% (no tracer) and 100% (no inhibitor) control ([1]; JNK2, inhibitor 50 nM, two replicates, listed as RN341, 0.05 µM): 96.724% | remaining activity at 0.05 µM ([1]; JNK2, inhibitor 50 nM, two replicates, read-out: nanoBRET response normalized to 0% (no tracer) and 100% (no inhibitor) control): 91.7% | nanoBRET response normalized to 0% (no tracer) and 100% (no inhibitor) control ([1]; JNK2, inhibitor 250 nM, two replicates, listed as RN341, […]): 80.9747% | remaining activity at […] ([1]; JNK2, inhibitor 250 nM, two replicates, read-out: nanoBRET response normalized to 0% (no tracer) and 100% (no inhibitor) control): 78.7% | nanoBRET response normalized to 0% (no tracer) and 100% (no inhibitor) control ([1]; JNK2, inhibitor 500 nM, two replicates, listed as RN341, 0.5 µM): 61.7006% | remaining activity at 0.5 µM ([1]; JNK2, inhibitor 500 nM, two replicates, read-out: nanoBRET response normalized to 0% (no tracer) and 100% (no inhibitor) control): 65.3% | nanoBRET response normalized to 0% (no tracer) and 100% (no inhibitor) control ([1]; JNK2, inhibitor 2500 nM, two replicates, listed as RN341, […]): 73.4181% | remaining activity at […] ([1]; JNK2, inhibitor 2500 nM, two replicates, read-out: nanoBRET response normalized to 0% (no tracer) and 100% (no inhibitor) control): 71.9% | nanoBRET response normalized to 0% (no tracer) and 100% (no inhibitor) control ([1]; JNK2, inhibitor 5000 nM, two replicates, listed as RN341, 5 µM): 50.6395% | remaining activity at 5 µM ([1]; JNK2, inhibitor 5000 nM, two replicates, read-out: nanoBRET response normalized to 0% (no tracer) and 100% (no inhibitor) control): 57.2% | nanoBRET response normalized to 0% (no tracer) and 100% (no inhibitor) control ([1]; JNK2, inhibitor 25000 nM, two replicates, listed as RN341, 25 µM): 6.955% | remaining activity at 25 µM ([1]; JNK2, inhibitor 25000 nM, two replicates, read-out: nanoBRET response normalized to 0% (no tracer) and 100% (no inhibitor) control): 9.64% | EC50 ([1]; in cellulo nanoBRET, 293T cells): < 5 µM and 2.7 µM | EC50 [2]: ≥ 20 µM | nanoBRET response normalized to 0% (no tracer) and 100% (no inhibitor) control ([2]; STK17B, inhibitor 8 nM, two replicates, listed as RN341, 0.008 µM): 97.0874% | NanoBRET tracer signal (% of no-inhibitor control) at 0.008 µM ([2]; STK17B, inhibitor 8 nM, two replicates, read-out: nanoBRET response normalized to 0% (no tracer) and 100% (no inhibitor) control): 97.6% | nanoBRET response normalized to 0% (no tracer) and 100% (no inhibitor) control ([2]; STK17B, inhibitor 16 nM, two replicates, listed as RN341, 0.016 µM): 82.8095% | NanoBRET tracer signal (% of no-inhibitor control) at 0.016 µM ([2]; STK17B, inhibitor 16 nM, two replicates, read-out: nanoBRET response normalized to 0% (no tracer) and 100% (no inhibitor) control): 94.7% | nanoBRET response normalized to 0% (no tracer) and 100% (no inhibitor) control ([2]; STK17B, inhibitor 50 nM, two replicates, listed as RN341, 0.05 µM): 109.03% | NanoBRET tracer signal (% of no-inhibitor control) at 0.05 µM ([2]; STK17B, inhibitor 50 nM, two replicates, read-out: nanoBRET response normalized to 0% (no tracer) and 100% (no inhibitor) control): 112% | nanoBRET response normalized to 0% (no tracer) and 100% (no inhibitor) control ([2]; STK17B, inhibitor 250 nM, two replicates, listed as RN341, […]): 93.8885% | NanoBRET tracer signal (% of no-inhibitor control) at […] ([2]; STK17B, inhibitor 250 nM, two replicates, read-out: nanoBRET response normalized to 0% (no tracer) and 100% (no inhibitor) control): 111% | nanoBRET response normalized to 0% (no tracer) and 100% (no inhibitor) control ([2]; STK17B, inhibitor 500 nM, two replicates, listed as RN341, 0.5 µM): 103.232% and 77.6568% | NanoBRET tracer signal (% of no-inhibitor control) at […] ([2]; STK17B, inhibitor 2500 nM, two replicates, read-out: nanoBRET response normalized to 0% (no tracer) and 100% (no inhibitor) control): 122% and 101% | nanoBRET response normalized to 0% (no tracer) and 100% (no inhibitor) control ([2]; STK17B, inhibitor 5000 nM, two replicates, listed as RN341, 5 µM): 104.626% and 83.1368% | nanoBRET response normalized to 0% (no tracer) and 100% (no inhibitor) control ([2]; STK17B, inhibitor 25000 nM, two replicates, listed as RN341, 25 µM): 75.7774% | NanoBRET tracer signal (% of no-inhibitor control) at 25 µM ([2]; STK17B, inhibitor 25000 nM, two replicates, read-out: nanoBRET response normalized to 0% (no tracer) and 100% (no inhibitor) control): 80.3% | EC50 [3]: ≥ 20 µM | nanoBRET response normalized to 0% (no tracer) and 100% (no inhibitor) control ([3]; DYRK2, inhibitor 8 nM, two replicates, listed as RN341, 0.008 µM): 91.4839% | remaining nanoBRET tracer signal (% of no-inhibitor control) at 0.008 µM ([3]; DYRK2, inhibitor 8 nM, two replicates, read-out: nanoBRET response normalized to 0% (no tracer) and 100% (no inhibitor) control): 100% | nanoBRET response normalized to 0% (no tracer) and 100% (no inhibitor) control ([3]; DYRK2, inhibitor 16 nM, two replicates, listed as RN341, 0.016 µM): 93.886% | remaining nanoBRET tracer signal (% of no-inhibitor control) at 0.016 µM ([3]; DYRK2, inhibitor 16 nM, two replicates, read-out: nanoBRET response normalized to 0% (no tracer) and 100% (no inhibitor) control): 98.2% | nanoBRET response normalized to 0% (no tracer) and 100% (no inhibitor) control ([3]; DYRK2, inhibitor 50 nM, two replicates, listed as RN341, 0.05 µM): 96.6464% | remaining nanoBRET tracer signal (% of no-inhibitor control) at 0.05 µM ([3]; DYRK2, inhibitor 50 nM, two replicates, read-out: nanoBRET response normalized to 0% (no tracer) and 100% (no inhibitor) control): 100% | remaining nanoBRET tracer signal (% of no-inhibitor control) at […] ([3]; DYRK2, inhibitor 250 nM, two replicates, read-out: nanoBRET response normalized to 0% (no tracer) and 100% (no inhibitor) control): 102% and 94.4%
